Laboratory results taken from ChEMBL document CHEMBL5226339, “Strategies for Structural Modification of Small Molecules to Improve Blood-Brain Barrier Penetration: A Recent Perspective” (J Med Chem, 2021).
One block for each molecule: values may come before it.

Legend:
[1] = Prodrug release in mouse assessed as nipecotic-acid concentration in brain at 15 mg/kg, iv after 30 mins; type: ADME, organism-based; details: in vivo, 0.5 h
[2] = Apparent permeability in MDCKII-MDR1 cells; type: ADME, cell-based, Canis lupus familiaris; details: dog, MDCK-MDR1
[3] = Efflux ratio of apparent permeability across basolateral to apical side over apical to basolateral side in MDCK-MDR1 cells; type: ADME, cell-based, Canis lupus familiaris; details: dog
[4] = target: Procathepsin L (Homo sapiens, UniProt P07711); test: Inhibition of human cathepsin L
Sequence of Procathepsin L (P07711 whole entry): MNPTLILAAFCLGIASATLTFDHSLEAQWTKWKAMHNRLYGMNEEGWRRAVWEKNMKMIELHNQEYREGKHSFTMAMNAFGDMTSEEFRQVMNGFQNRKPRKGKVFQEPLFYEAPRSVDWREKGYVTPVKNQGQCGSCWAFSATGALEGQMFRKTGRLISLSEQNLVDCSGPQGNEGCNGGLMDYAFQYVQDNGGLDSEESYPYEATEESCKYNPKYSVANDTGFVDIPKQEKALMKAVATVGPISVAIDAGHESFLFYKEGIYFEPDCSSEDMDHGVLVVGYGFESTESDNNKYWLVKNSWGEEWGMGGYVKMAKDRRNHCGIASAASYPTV

[5] = Ratio of AUC in Brain to plasma in mouse at 10 mg/kg, po; type: ADME, organism-based; details: brain and plasma, read-out: Ratio AUC
[6] = Inhibition of Toxoplasma gondii cathepsin L
[7] = Prodrug release in mouse brain assessed as Cmax of ibuprofen after 60 mins; type: ADME, tissue-based; design: time 60 min; details: in vivo, 1 h
[8] = Prodrug release in mouse brain assessed as AUC of ibuprofen after 60 mins; type: ADME, tissue-based; design: time 60 min; details: in vivo, 1 h
[9] = Prodrug release in mouse assessed as unbound brain to plasma concentration of ketoprofen at 30 mg/kg, po; type: ADME, organism-based
[10] = AUC in mouse brain at 48 mmol/kg, iv after 25 mins; type: ADME, organism-based; design: time 25 min, dose 48 mmol/Kg, route iv; details: in vivo
[11] = Cmax in mouse brain at 48 mmol/kg, iv after 25 mins; type: ADME, organism-based; design: dose 48 mmol/Kg, time 25 min, route iv
[12] = Unbound brain-to-plasma concentration ratio in mouse at 30 mg/kg, po; type: ADME, organism-based; details: brain and plasma, read-out: K(p,uu,brain)

efflux ratio [3]: 0.223
IC50 [4]: 23 nM
Kp [5]: 0.52
Compound: CC(C)CCN(c1nc(C#N)nc(N2CCOCC2)n1)C(C)c1ccc(F)cc1 (centres undefined)
IC50 [6]: 92 nM

K(p,uu,brain) [9]: 0.13
Compound: C[C@H](C(=O)Nc1cccc(C[C@@H](N)C(=O)O)c1)c1cccc(C(=O)c2ccccc2)c1

K(p,uu,brain) [9]: 0.35
Compound: C[C@H](C(=O)Nc1ccc(C[C@@H](N)C(=O)O)cc1)c1cccc(C(=O)c2ccccc2)c1

The remaining lines, values behind:

Compound: N[C@@H](COC(=O)C1CCCNC1)C(=O)O (some centres undefined)
Drug metabolism [1]: 450 nmol/g

Compound: CC(c1ccc(O)c(O)c1)N(C)C.Cl (centres undefined)
Papp [2]: 1.13 ×10⁻⁶ cm/s

Compound: CC(C)Cc1ccc(C(C)C(=O)O[C@@H](CN(C)C)[C@H]2OC(=O)C(O)=C2O)cc1 (some centres undefined)
Cmax [7]: 52.6 µg/g
AUC [8]: 5870 µg·min/g

Compound: CC(c1cc(O)ccc1O)N(C)C.Cl (centres undefined)
Papp [2]: 26.3 ×10⁻⁶ cm/s

Compound: N#Cc1nc(N2CCOCC2)nc(N(Cc2ccc(F)cc2)CC2CCCNC2)n1 (centres undefined)
efflux ratio [3]: 17.2
IC50 [4]: 1200 nM
Kp [5]: 0.15
IC50 [6]: 181 nM

Compound: CC(c1cccc(O)c1O)N(C)C.Cl (centres undefined)
Papp [2]: 23.9 ×10⁻⁶ cm/s

Compound: CC(C)Cc1ccc(C(C)C(=O)O)cc1 (centres undefined) [IBUPROFEN]
AUC [10]: 1860 µg·min/g
Cmax [11]: 10.7 µg/g

Compound: CC(C(=O)O)c1cccc(C(=O)c2ccccc2)c1 (centres undefined) [KETOPROFEN]
Kp uu [12]: 0.01
